Data reported in PubChem BioAssay (NCI).
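Following 48 hours of exposure in 96-well plates, responses at five concentrations were used to interpolate endpoints linearly. GI50 = concentration required for 50% inhibition of growth. TGI is the concentration that stops growth completely.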

What was measured:
Assay in all cases: NCI tumour cell line growth inhibition, 48 h
[1] = tested on: HCT-116 colon
[2] = tested on: NCI-H226 lung
[3] = tested on: LOX IMVI melanoma
[4] = tested on: SF-539 CNS
[5] = tested on: SK-MEL-28 melanoma
[6] = tested on: NCI-H23 lung
[7] = tested on: UACC-257 melanoma
[8] = tested on: PC-3 prostate
[9] = tested on: HOP-92 NSCLC
[10] = tested on: CCRF-CEM leukemia

Structure (SMILES)	GI50 [1] [µM]	TGI [1] [µM]	GI50 [2] [µM]	TGI [2] [µM]	GI50 [3] [µM]	TGI [3] [µM]	GI50 [4] [µM]	TGI [4] [µM]	GI50 [5] [µM]	TGI [5] [µM]	GI50 [6] [µM]	TGI [6] [µM]	GI50 [7] [µM]	TGI [7] [µM]	GI50 [8] [µM]	TGI [8] [µM]	GI50 [9] [µM]	TGI [9] [µM]	GI50 [10] [µM]	TGI [10] [µM]
CCSc1ccc(C2C(Br)C(=O)N2c2cc(OC)c(OC)c(OC)c2)cc1 (centres undefined)	0.222	10.6	3.11	43.5	0.834	16.6	0.161	0.61	1.94	30	0.478	73.4	14.3	> 100	0.297	> 100	0.443	14.1	0.278	18.2
N#CC1C=Cc2c(ccc3ccccc23)N1C(=O)c1ccccc1 (centres undefined)	0.0637	> 100	1.34	> 100	0.319	> 100	0.238	–	0.723	> 100	0.433	> 100	14.7	> 100	0.333	> 100	3.1	> 100	0.149	> 69.9
Nc1ncc(-c2cccc(S(N)(=O)=O)c2)c2scc(-c3ccc(F)c(Cl)c3)c12	4.34	8.29	5.71	15.1	4.84	9.67	5.27	13.2	8.8	> 23.3	7.05	> 21	6.46	17.2	6.83	> 20.6	5.14	18.4	6.12	> 22.2
C=CC(COC(c1ccccc1)(c1ccccc1)c1ccccc1)N(CC)CC (centres undefined)	3.43	14.3	11.9	30.9	4.73	18.8	4.88	18.6	3.59	11.8	6.07	19.9	2.27	6.32	4.02	15.6	4.5	18	3.76	14.8
Cc1coc2c1C(OC(=O)C(C)C)C1(C)C(C)CCC(O)C1C2=O (centres undefined)	–	> 100	–	> 100	–	> 100	–	> 100	–	> 100	–	> 100	–	> 100	–	> 100	–	> 100	–	> 100
COc1cccc2c1n([O-])c1cccc(OC)c1[n+]2=O	3.7	64.3	6.1	28.8	5.19	27.2	7.85	> 100	–	–	4.82	28	9.69	28.7	7.76	35.3	16.3	> 100	3.49	35.7
NC(=S)NN=C1CSSC1	2.78	11.8	1.66	14.5	–	–	2.75	7.38	4.67	25.9	3.78	35.5	1.93	17.8	3.57	24.5	2.35	5.89	3.77	> 100
COc1ccccc1C(=O)N(C)c1ccc(Cl)c(C(=O)OC(C)C)c1	–	> 100	–	> 100	–	> 100	–	> 100	–	> 100	–	> 100	–	> 100	–	> 100	–	> 100	–	> 100
Cn1cc(C2=C(N3CCOCC3)C(=O)NC2=O)c2ccccc21	> 25	> 25	> 25	> 25	> 25	> 25	> 25	> 25	> 25	> 25	> 25	> 25	> 25	> 25	> 25	> 25	14.7	> 25	> 25	> 25
O=C1C(Cl)=C(Nc2cccc(O)c2)C(=O)N1Cc1ccc(Cl)cc1Cl	2.01	12.4	1.11	20.4	4.06	15.5	0.561	13.8	3.89	18.3	3.78	17.8	8.76	21.5	4.88	19.6	12.2	26.9	2.82	52.7
Cc1cc(C(=O)c2ccccc2)c(C)c2c1[nH]c1ccc(Cl)cc12	0.0437	4.74	0.892	15.6	0.0642	10.3	0.0415	0.799	3.64	72.3	0.101	> 47	4.48	79.6	0.0526	> 43.9	1.71	21.2	0.046	> 100
O=C(NC(=O)c1ccccc1[N+](=O)[O-])Nc1ccc(Oc2ncc(Cl)cn2)c(C(F)(F)F)c1	–	27.3	–	1.39	–	13.8	–	0.489	–	> 4.64	–	> 100	–	41.8	–	0.0658	–	3.24	–	> 100
Cc1ccc(-c2cc(O)c(-c3ccc(C)cc3C)cc2O)c(C)c1	1.17	13.7	3.11	19.2	1.92	17.2	10.7	23.2	10.8	25.5	7.43	26.2	5.81	19.1	3.95	57.1	5.44	28.9	3.65	> 100
CC(C)(C)c1ccc(NS(=O)(=O)c2ccc3nc(NC(=O)c4cnccn4)[nH]c3c2)cc1	3.17	19.2	2.27	8.19	2.61	15.4	1.95	4.96	3.57	17.5	3.19	15.4	10.8	26	1.65	10.6	1.5	5.92	3.2	> 100
COc1cc2c3c(n(C)c(=O)c2cc1OC)-c1cc2c(cc1/C3=C\CCNCCCN)OCO2	1.49	3.39	0.987	5.02	–	–	1.65	9.95	2.87	91.8	2.67	12.4	–	39.7	2.09	10.2	1.45	11.1	0.686	13.4
CC[C@H](C)C(=O)O[C@H]1C[C@H](O)C=C2C=C[C@H](C)[C@H](CC[C@@H](O)C[C@@H](O)CC(=O)O)[C@H]21	> 100	> 100	> 100	> 100	> 100	> 100	> 100	> 100	> 100	> 100	> 100	> 100	> 100	> 100	> 100	> 100	23	> 100	> 100	> 100
C=CC1=C(C)C2=NC1=CC1=NC(=C(CC)/C1=C\O)C=C1N=C3C(=C1C)C(=O)[C@H](C(=O)OC)C3=C1NC(=C2)[C@@H](C)[C@@H]1CCC(=O)O	–	> 100	–	> 100	–	> 100	–	> 100	–	> 100	–	> 100	–	> 100	–	> 100	–	> 100	–	> 100
C[C@@H]1COCCN1c1cc(C2(O)C[C@H]3CC[C@@H](C2)O3)c2cnn(-c3ccn[nH]3)c2n1 (some centres undefined)	0.118	> 100	0.0448	0.528	0.0246	0.145	0.023	0.0946	0.251	2.1	0.0286	0.188	0.168	1.42	0.277	24.4	0.114	0.879	0.0382	> 100
O=[N+]([O-])c1cccc2nccc(NCCCO)c12	–	> 100	–	50.6	–	31.7	–	29.4	–	26.5	–	27.1	–	23.6	–	69.8	–	–	–	57.5
O=C(O)Cn1cc([N+](=O)[O-])c(=O)c2ccccc21	–	> 100	–	> 100	–	–	–	> 100	–	> 100	–	> 100	–	> 100	–	> 100	–	–	–	> 100
COC(=O)C(C)NC(=O)c1ccccc1I(OS(=O)(=O)C(F)(F)F)c1ccccc1 (centres undefined)	30	> 100	17.1	36	22.5	> 60.6	22.7	45.6	18.7	45.3	18.5	> 53.3	42.6	> 100	22	53.1	3.66	21.6	20.3	60.4
C[C@@H](Nc1nc(Nc2ccc(F)c(Cl)c2)nc2ccccc12)C1CC1	1.49	3.2	6.37	35.9	1.68	3.25	3.16	12.4	2.86	11.8	1.48	9.34	–	–	2.19	8.04	1.6	5.79	2.25	7.12
COc1c(B(O)O)cc(F)cc1-c1nc2ccc3[nH]ncc3c2c2c1CCCC2	0.322	10.3	2	7.85	0.727	3.43	0.0686	2.24	2.69	8.47	2.02	7.61	3.65	12.5	1.9	11.3	< 0.01	14.4	0.53	> 38.6
O=c1oc2c(C(F)(F)F)cccc2cc1-c1csc(Nc2ccc(OCCF)cc2)n1	0.032	0.54	0.587	72.3	0.0467	> 42.2	0.0248	0.07	1.32	> 66.4	0.0544	23.4	0.653	> 100	0.0446	> 100	0.0975	3.88	0.0353	> 69.2
O=C(c1ccccc1)c1c(C(F)(F)F)n([O-])c2ccc(C(F)(F)F)cc2[n+]1=O	0.138	0.27	0.524	1.2	0.0513	0.0954	0.315	0.745	0.507	0.957	0.503	1.13	0.295	0.968	0.0948	0.229	0.16	0.318	0.281	1.41
CS(=O)(=O)N(c1cc(-c2ccc3ncnc(Nc4cccc(Cl)c4)c3c2)cnc1Cl)S(C)(=O)=O	0.622	3.74	1.04	9.75	0.427	2.26	0.533	4.33	0.306	11.1	0.417	3.72	–	–	0.539	3.63	0.158	0.891	0.52	89.3
O=C(O)/C(=C\c1ccncc1)c1cccc2ccccc12	–	> 100	–	–	–	> 100	–	> 100	–	> 100	–	> 100	–	30.7	–	> 100	–	> 100	–	> 100
O=C1OCC2=C1C(c1ccccc1)c1cc3c(cc1N2CCO)OCCO3 (centres undefined)	0.226	> 18.7	10.8	> 50	0.36	> 50	0.298	–	8.24	> 50	0.448	> 50	–	–	0.182	> 50	–	–	0.276	> 50
